Three molecules from article PMC5635026, “Homo-PROTACs: bivalent small-molecule dimerizers of the VHL E3 ubiquitin ligase to induce self-degradation” (Nature Communications, 2017) can be followed below.

Several values for one entry are separate records, joined by “and”; a condition that tells them apart may be missing. Equal values may be shown once.

In one assay the test system is HeLa cells. Description: Isobaric tagging (TMT) MS proteomics in HeLa cells, proteome-wide degradation. The assay is classed as cell-based, Human. The note with it: 1 µM for 10 h, compared to DMSO or VHL inhibitor treatment. Here is the method:
MS proteomics. Sample preparation. HeLa cells were seeded at 5 × 10^6 on a 10 cm plate 16 h before treatment. […] Cells were incubated at 37 °C and 5% CO2 for 10 h before harvesting. Cells were placed on ice and medium was removed and cells were washed twice with cold PBS. Cells were lysed in 0.5 ml of 100 mM Tris pH 8.0, 4% (w/v) SDS supplemented with protease inhibitor cocktail (Roche). The lysate was pulse sonicated briefly and then centrifuged at 17,000 × g for 15 min at 4 °C. The supernatant fraction of cell extract was snap-frozen in liquid nitrogen and stored in −80 °C freezer. Further sample processing, digestion, desalting, labeling and fractionation were performed as previously described.
nLC-MS/MS analysis. The TMT 10plex fractions were first analyzed as previously described. Briefly, the TMT 10plex fractions were analyzed sequentially on a Q Exactive HF Hybrid Quadrupole-Orbitrap Mass Spectrometer (Thermo Scientific) coupled to an UltiMate 3000 RSLCnano UHPLC system (Thermo Scientific) and EasySpray column (75 μm × 50 cm, PepMap RSLC C18 column, 2 μm, 100 Å, Thermo Scientific). The MS2 isolation window was set to 0.4 Da and the resolution set at 120,000. MS2 resolution was set at 60,000. The AGC targets for MS1 and MS2 were set at 3e^6 ions and 1e5 ions, respectively. The normalized collision energy was set at 32%. […] After the first analysis, the TMT labeled fractions were re-analyzed on the Q-Exactive HF using the same instrument settings and a target list generated from a theoretical trypsin digest of VHL. […] After the second analysis, two fractions were further analyzed using a targeted SIM/ddMS2 method on the Q-Exactive HF. […]
Peptide and protein identification. All the raw MS data files from the three analyses were merged and searched against the Uniprot-sprot-Trembl-Human-Canonical database by Maxquant software 1.5.3.30 for protein identification and TMT reporter ion quantitation. […] Quantified proteins were filtered if the absolute fold-change difference between the two DMSO replicates was ≥ 1.5.

A further assay deals with pVHL19 (Homo sapiens, UniProt P40337). The assay is described as follows: Isothermal titration calorimetry (ITC) against VCB complex with short VHL isoform (V19CB). Set-up: made in house. The assay is classed as binding. The note with it: for ΔG / ΔH / −TΔS / Kd / n: 25 °C; for ΔG / ΔH / −TΔS / α: pVHL19; for Kd / n: pVHL19 (V19CB); for n: stoichiometry of binding; for α: avidity / cooperativity compared to VH032, ITC. Here is the method: Protein expression and purification. Human proteins VHL (UniProt accession number: P40337), ElonginC (Q15369), and ElonginB (Q15370) were used for all protein expression. The short-isoform-containing VCB complex (V19CB) was expressed, purified and stored as described previously. For expression of the long-isoform-containing VCB complex (V30CB), N-terminally His6-tagged VHL (1–213), ElonginC (17–112) and ElonginB (1–104) were co-expressed in Escherichia coli BL21(DE3) at 20 °C for 18 h using 0.5 mM isopropyl β-D-1-thiogalactopyranoside (IPTG). E. coli cells were resuspended in binding buffer (50 mM HEPES, pH 8.0, 500 mM NaCl, 10 mM imidazole and 5 mM β-mercaptoethanol), lysed using a pressure cell homogenizer (Stansted Fluid Power), and lysate clarified by centrifugation. The supernatant was loaded onto a HisTrap FF affinity column (GE Healthcare) equilibrated with binding buffer, and bound protein was eluted using an imidazole gradient. The His6 tag was removed using thrombin protease (Sigma), and the untagged complex was dialyzed into binding buffer. V30CB was then loaded onto the HisTrap FF column a second time, allowing impurities to bind as the complex eluted without binding. The flow-through was dialyzed using a low-salt buffer (20 mM HEPES, pH 8.0, 25 mM NaCl and 1 mM DTT) and then loaded onto a Resource Q anion exchange column (GE Healthcare); bound protein was eluted across a linear NaCl gradient. V30CB was then additionally purified by size-exclusion chromatography using a Superdex-75 16/600 column (GE Healthcare) equilibrated with 20 mM HEPES, pH 7.5, 100 mM sodium chloride and 1 mM TCEP. All chromatography purification steps were performed using Äkta FPLC purification systems (GE Healthcare).
Sequence of pVHL19 (P40337 54-213): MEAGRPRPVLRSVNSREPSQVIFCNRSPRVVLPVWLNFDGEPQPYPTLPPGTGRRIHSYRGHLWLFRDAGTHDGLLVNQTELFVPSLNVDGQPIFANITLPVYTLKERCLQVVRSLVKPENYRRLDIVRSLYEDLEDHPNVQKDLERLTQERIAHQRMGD
Sequence of pVHL19 (Q15369 17-112 partner limits assumed): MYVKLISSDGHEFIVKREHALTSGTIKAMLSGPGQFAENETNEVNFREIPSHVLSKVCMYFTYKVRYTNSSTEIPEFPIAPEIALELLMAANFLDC
Sequence of pVHL19 (Q15370 1-104 partner limits assumed): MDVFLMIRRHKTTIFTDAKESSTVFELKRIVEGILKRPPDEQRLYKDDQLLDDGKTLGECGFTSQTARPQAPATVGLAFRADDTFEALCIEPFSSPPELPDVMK
Isothermal titration calorimetry (ITC). Titrations were performed on an ITC200 micro-calorimeter (GE Healthcare). […] The final DMSO concentration was 0.15% v/v. VCB protein experiments were carried out in a buffer containing 20 mM Bis-tris propane, 150 mM NaCl, 1 mM TCEP, 0.15% v/v DMSO, pH 7.4. The titrations consisted of 19 injections of 2 µL compounds solution (150 µM, in the syringe) at a rate of 0.5 µl s^−1 at 120 s time intervals into the VCB protein solution (20 µM, in the cell). An initial injection of compound solution (0.4 µL) was made and discarded during data analysis. All experiments were performed at 25 °C, whilst stirring the syringe at 600 rpm. The data were fitted to a single binding site model to obtain the stoichiometry n, the dissociation constant K d and the enthalpy of binding ΔH using the Microcal LLC ITC200 Origin software provided by the manufacturer.

`Cc1ncsc1-c1ccc(CNC(=O)[C@@H]2C[C@@H](O)CN2C(=O)[C@@H](NC(=O)COCCOCCOCCOCC(=O)N[C@H](C(=O)N2C[C@H](O)C[C@H]2C(=O)NCc2ccc(-c3scnc3C)cc2)C(C)(C)C)C(C)(C)C)cc1` [CM09, N ^1 ,N ^14-bis((S)-1-((2S,4R)-4-hydroxy-2-((4-(4-methylthiazol-5-yl)benzyl)carbamoyl)pyrrolidin-1-yl)-3,3-dimethyl-1-oxobutan-2-yl)-3,6,9,12-tetraoxatetradecanediamide]: the “proteins depleted amongst 6,450 detected proteins” value in the assay with HeLa cells is listed as “no proteins other than Cul2 were substantially depleted”. For the same molecule, at pVHL19 (ITC), the ΔG result was “–10.3 ± 0.2 kcal mol^−1”, the ΔH result was “–6.9 ± 0.3 kcal mol^−1”, the “−TΔS” value is recorded as “–3.5 ± 0.5 kcal mol^−1” and the Kd came out at 41 ± 15 nM. On pVHL19 (ITC), this molecule came in with a n of 0.98 ± 0.09. Moreover, on pVHL19, the α came out at 4.

With `Cc1ncsc1-c1ccc(CNC(=O)[C@@H]2C[C@@H](O)CN2C(=O)[C@@H](NC(=O)COCCOCCOCCOCCOCC(=O)N[C@H](C(=O)N2C[C@H](O)C[C@H]2C(=O)NCc2ccc(-c3scnc3C)cc2)C(C)(C)C)C(C)(C)C)cc1` [CM10, N ^1 ,N ^17-bis((S)-1-((2S,4R)-4-hydroxy-2-((4-(4-methylthiazol-5-yl)benzyl)carbamoyl)pyrrolidin-1-yl)-3,3-dimethyl-1-oxobutan-2-yl)-3,6,9,12,15-pentaoxaheptadecanediamide], the “proteins depleted amongst 6,450 detected proteins” value in the assay on HeLa cells is “no proteins other than Cul2 were substantially depleted”. On pVHL19 (ITC), the ΔG entry is given as “–10.2 ± 0.1 kcal mol^−1”, the ΔH entry was “–9.4 ± 0.1 kcal mol^−1”, the “−TΔS” value is on record as “–0.8 ± 0.2 kcal mol^−1” and binding was put at a Kd of 32 ± 5 nM. Further, the n on pVHL19 (ITC) was 0.73 ± 0.01. The same molecule displayed a α at pVHL19 of 6.

For `Cc1ncsc1-c1ccc(CNC(=O)[C@@H]2C[C@@H](O)CN2C(=O)[C@@H](NC(=O)COCCOCCOCCOCCOCCOCC(=O)N[C@H](C(=O)N2C[C@H](O)C[C@H]2C(=O)NCc2ccc(-c3scnc3C)cc2)C(C)(C)C)C(C)(C)C)cc1` [CM11, N ^1 ,N ^20-bis((S)-1-((2S,4R)-4-hydroxy-2-((4-(4-methylthiazol-5-yl)benzyl)carbamoyl)pyrrolidin-1-yl)-3,3-dimethyl-1-oxobutan-2-yl)-3,6,9,12,15,18-hexaoxaicosanediamide], in the assay on HeLa cells, the “proteins depleted amongst 6,450 detected proteins” value was “no proteins other than Cul2 were substantially depleted”. Also, on pVHL19 (ITC), the ΔG entry is “–10.9 ± 0.1 kcal mol^−1”; the “−TΔS” value is 1.4 kcal/mol and 1.4 ± 0.8 kcal/mol; binding was put at a Kd of 11 ± 2 nM; the n was 0.6 ± 0.01. Moreover, the “avidity (cooperativity α) compared to VH032” value on pVHL19 (ITC, VCB) is recorded as above 18 fold. On pVHL19, this molecule had a α of 18.
